Here are results for one compound from PMC8434109, “Synthesis and Biological Activity of a Cytostatic Inhibitor of MLLr Leukemia Targeting the DOT1L Protein” (Molecules, 2021).

What is called half-life is how long it takes for the measured level to halve.

The target of one data set is T1, G9a (Homo sapiens, UniProt Q96KQ7).
T1 construct: purchased Reaction Biology
T1 sequence (Q96KQ7 1-1210): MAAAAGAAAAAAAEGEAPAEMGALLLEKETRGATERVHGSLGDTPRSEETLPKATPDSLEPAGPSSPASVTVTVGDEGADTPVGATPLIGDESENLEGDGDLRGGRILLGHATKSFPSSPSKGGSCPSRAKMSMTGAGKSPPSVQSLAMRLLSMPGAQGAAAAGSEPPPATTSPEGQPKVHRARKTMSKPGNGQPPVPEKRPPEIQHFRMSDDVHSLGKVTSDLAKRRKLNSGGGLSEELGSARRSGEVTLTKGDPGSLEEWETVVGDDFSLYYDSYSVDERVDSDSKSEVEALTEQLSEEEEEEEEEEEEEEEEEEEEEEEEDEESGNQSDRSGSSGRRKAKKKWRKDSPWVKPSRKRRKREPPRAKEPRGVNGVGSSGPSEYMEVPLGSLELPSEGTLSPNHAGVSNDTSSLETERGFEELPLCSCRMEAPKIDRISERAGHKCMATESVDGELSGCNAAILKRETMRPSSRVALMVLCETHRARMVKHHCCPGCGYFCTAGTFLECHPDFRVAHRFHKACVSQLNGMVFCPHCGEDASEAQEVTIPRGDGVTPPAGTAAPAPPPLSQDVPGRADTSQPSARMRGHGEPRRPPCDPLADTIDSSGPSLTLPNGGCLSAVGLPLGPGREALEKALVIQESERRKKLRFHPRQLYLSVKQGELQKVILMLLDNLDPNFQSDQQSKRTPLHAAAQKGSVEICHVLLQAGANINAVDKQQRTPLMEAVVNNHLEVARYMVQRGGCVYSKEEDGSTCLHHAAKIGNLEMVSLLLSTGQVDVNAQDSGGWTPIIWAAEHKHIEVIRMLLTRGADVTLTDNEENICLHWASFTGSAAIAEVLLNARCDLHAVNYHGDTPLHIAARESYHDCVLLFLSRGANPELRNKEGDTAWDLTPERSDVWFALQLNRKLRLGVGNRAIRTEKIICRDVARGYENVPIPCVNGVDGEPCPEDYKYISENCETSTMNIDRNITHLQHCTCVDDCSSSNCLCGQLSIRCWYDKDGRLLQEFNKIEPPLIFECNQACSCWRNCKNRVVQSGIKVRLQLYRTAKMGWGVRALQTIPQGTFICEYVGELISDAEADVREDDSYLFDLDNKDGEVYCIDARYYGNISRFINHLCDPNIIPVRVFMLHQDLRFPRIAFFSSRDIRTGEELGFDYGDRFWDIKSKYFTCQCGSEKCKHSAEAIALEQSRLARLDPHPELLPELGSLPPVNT
The data set is described as follows: HMT selectivity panel (Reaction Biology). It counts as biochemical. The settings on record: substrate Histone H3 1-21, read-out: Enzyme % Activity (relative to DMSO controls). The procedure: (§1) Table S1: Selectivity of the compound on a HMT panel (by Reaction Biology, USA) and on hDNMT3Acat (as described in Ceccaldi
(§2) Enzyme % Activity (relative to DMSO
(§3) Testing Concentration 10µM
(§4) Methyltransferase: Substrate: Activity enzyme in %

In another data set the target is T2, PRMT4 (Homo sapiens, UniProt Q86X55).
T2 construct: purchased Reaction Biology
T2 sequence (Q86X55 1-608): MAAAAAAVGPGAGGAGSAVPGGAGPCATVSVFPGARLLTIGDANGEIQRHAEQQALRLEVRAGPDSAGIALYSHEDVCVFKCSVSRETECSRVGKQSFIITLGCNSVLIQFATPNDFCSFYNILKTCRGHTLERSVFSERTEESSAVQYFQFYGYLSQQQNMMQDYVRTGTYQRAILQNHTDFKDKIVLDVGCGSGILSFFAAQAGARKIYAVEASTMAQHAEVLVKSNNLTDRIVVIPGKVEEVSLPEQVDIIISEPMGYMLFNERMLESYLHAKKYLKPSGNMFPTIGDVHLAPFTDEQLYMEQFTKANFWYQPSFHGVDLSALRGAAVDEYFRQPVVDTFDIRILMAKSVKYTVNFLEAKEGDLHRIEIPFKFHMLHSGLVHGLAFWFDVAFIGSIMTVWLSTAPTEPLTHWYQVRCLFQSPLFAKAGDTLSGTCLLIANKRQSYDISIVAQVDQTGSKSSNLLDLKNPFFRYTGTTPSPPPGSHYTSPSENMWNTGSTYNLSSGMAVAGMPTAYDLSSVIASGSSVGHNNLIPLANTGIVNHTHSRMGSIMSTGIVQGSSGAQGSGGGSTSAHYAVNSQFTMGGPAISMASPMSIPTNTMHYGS
In words: HMT selectivity panel (Reaction Biology). The following applies: substrate Histone H3, read-out: Enzyme % Activity (relative to DMSO controls). It counts as biochemical. The procedure:
as §1, §2, §3, §4

The target of another data set is T3, EZH2 Complex (Homo sapiens, UniProt Q15910).
T3 construct: purchased Reaction Biology
In words: HMT selectivity panel (Reaction Biology). The following applies: substrate Core Histone, read-out: Enzyme % Activity (relative to DMSO controls). It counts as biochemical. The procedure:
as §1, §2, §3, §4

The next data set addresses T4, SMYD2 (Homo sapiens, UniProt Q9NRG4).
T4 construct: purchased Reaction Biology
The data set is described as follows: HMT selectivity panel (Reaction Biology). It counts as biochemical. The settings on record: substrate Histone H4, read-out: Enzyme % Activity (relative to DMSO controls). The procedure: as §1, §2, §3, §4

The next data set in a line: Microsomal stability. It counts as in vitro ADME.

T3 sequence (Q15910 2-746 limits assumed): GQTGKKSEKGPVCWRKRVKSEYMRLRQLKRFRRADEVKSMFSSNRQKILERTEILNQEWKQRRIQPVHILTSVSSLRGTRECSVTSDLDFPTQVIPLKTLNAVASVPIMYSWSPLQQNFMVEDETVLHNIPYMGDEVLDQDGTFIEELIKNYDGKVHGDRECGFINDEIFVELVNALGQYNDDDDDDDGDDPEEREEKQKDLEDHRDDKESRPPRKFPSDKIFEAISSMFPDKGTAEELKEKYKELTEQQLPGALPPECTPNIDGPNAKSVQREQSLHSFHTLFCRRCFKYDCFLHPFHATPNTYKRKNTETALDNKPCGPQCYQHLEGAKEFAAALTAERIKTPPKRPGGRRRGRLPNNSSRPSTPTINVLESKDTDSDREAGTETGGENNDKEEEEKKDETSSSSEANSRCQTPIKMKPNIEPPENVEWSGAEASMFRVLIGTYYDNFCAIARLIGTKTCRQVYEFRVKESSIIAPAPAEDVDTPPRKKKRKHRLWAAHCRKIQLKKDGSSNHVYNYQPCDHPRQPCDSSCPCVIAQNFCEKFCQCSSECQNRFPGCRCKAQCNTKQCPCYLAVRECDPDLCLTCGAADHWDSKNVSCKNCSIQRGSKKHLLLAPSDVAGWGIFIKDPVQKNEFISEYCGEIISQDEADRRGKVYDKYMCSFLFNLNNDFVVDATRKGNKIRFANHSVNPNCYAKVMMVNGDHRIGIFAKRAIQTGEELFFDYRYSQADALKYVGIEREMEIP
T3 sequence (O75530 2-441 partner limits assumed): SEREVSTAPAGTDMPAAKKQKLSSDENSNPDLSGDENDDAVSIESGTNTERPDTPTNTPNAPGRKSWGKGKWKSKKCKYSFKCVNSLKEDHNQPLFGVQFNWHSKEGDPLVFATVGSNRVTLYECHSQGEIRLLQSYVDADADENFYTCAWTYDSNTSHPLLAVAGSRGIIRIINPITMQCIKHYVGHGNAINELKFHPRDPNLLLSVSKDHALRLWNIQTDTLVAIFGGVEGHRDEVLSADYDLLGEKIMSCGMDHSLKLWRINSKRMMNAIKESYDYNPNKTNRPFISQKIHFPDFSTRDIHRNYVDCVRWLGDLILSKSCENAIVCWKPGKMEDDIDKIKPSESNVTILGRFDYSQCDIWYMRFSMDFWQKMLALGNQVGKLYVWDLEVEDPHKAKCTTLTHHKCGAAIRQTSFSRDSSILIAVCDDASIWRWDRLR
T3 sequence (Q15022 2-739 partner limits assumed): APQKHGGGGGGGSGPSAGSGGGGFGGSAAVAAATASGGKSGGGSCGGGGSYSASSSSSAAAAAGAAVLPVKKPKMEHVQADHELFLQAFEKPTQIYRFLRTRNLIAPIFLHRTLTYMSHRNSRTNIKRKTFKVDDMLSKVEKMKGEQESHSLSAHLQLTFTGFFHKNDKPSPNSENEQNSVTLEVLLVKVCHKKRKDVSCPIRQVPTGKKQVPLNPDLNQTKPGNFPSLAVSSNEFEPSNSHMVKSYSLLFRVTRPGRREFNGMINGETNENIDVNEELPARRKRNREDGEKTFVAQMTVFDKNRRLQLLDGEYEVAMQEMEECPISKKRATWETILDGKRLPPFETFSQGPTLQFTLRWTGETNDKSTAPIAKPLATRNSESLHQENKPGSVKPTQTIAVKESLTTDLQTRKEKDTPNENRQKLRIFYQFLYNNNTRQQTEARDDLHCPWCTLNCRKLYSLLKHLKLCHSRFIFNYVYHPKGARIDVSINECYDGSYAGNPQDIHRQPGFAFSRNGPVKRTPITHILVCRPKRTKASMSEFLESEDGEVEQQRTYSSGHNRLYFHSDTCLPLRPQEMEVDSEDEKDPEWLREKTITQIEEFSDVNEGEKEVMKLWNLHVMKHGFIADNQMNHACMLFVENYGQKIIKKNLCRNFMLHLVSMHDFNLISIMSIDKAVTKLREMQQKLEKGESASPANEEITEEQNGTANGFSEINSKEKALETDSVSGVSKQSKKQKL
T3 sequence (Q09028 2-425 partner limits assumed): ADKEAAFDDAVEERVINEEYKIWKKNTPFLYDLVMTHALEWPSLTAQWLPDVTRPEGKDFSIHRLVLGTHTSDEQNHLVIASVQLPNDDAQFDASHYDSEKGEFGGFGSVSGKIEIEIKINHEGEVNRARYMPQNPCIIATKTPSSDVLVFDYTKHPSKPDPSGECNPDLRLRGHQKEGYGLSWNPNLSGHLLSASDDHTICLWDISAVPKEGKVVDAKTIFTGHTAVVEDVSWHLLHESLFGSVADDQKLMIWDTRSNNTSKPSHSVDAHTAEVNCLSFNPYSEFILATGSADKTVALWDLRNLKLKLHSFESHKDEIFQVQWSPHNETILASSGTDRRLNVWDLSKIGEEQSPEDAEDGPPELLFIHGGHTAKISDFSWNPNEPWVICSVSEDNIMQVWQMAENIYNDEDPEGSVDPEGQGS
T3 sequence (Q6ZN18 whole entry partner): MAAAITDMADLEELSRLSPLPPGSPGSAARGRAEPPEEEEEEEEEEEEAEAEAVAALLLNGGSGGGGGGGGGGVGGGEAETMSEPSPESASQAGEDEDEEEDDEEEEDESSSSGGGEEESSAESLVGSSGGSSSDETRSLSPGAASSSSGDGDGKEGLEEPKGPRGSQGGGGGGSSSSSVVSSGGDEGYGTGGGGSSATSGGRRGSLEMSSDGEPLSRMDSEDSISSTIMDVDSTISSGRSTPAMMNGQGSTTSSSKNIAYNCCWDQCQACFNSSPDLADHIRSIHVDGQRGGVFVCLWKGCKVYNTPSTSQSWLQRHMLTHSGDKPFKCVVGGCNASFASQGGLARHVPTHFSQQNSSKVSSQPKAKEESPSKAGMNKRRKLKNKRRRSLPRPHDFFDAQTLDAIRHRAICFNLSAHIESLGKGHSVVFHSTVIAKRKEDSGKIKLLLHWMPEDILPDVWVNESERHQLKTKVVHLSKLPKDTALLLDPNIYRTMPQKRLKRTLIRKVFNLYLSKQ
T4 sequence (Q9NRG4 whole entry): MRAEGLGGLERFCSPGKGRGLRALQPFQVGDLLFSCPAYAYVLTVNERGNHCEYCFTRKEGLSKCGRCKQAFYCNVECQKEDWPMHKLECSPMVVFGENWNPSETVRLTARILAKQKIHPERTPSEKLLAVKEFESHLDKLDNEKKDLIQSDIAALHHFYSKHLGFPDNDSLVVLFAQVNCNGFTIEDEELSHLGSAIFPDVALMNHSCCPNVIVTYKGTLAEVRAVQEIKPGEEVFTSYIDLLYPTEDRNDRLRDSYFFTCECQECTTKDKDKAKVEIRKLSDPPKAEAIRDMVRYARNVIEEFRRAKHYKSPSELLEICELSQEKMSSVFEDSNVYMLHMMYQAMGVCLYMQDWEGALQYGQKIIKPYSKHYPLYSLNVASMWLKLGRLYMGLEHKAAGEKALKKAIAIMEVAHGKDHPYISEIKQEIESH

Take `CC(C)[C@H](CCCNC(=O)Nc1ccc(C(C)(C)C)cc1)N[C@H]1C[C@@H](n2cnc3c(N)ncnc32)[C@H](O)[C@@H]1O` [Dia2, 1-((S)-4-(((1S,2R,3S,4R)-4-(6-amino-9H-purin-9-yl)-2,3-dihydroxycyclopentyl)amino)-5-methylhexyl)-3-(4-(tert-butyl)phenyl)urea]: the remaining activity at 10 µM on G9a is 97 ± 1%; at PRMT4, 92 ± 1%; at EZH2 Complex it was 86 ± 1%; at SMYD2, 92 ± 1%. The same compound gave a half-life increase in “Microsomal stability” (mouse liver microsomes, versus EPZ-4777 and EPZ-5676) of 2 fold. Also, in the data set “Microsomal stability” (mouse liver microsomes, read-out: intrinsic clearance), the microsomal CLint was found to be 121 µL/min/mg. Besides, the half-life in the data set “Microsomal stability” (mouse, liver microsomes) was found to be 11.5 min.
